Measurements taken from patent US7429616B2, “Synthesis and complete stereochemical assignment of psymberin/irciniastatin for use as antitumor compounds” (Board of Regents, University of Texas System, priority 2005, dated 2008).

Experiments:
Format in all cases: cell-based, human
Conditions in all cases: average of three experiments, concentration range 0.2 nM to 20 μM; for GI50 / LC50: Homo sapiens; for GI50: read-out: GI50 (concentration that inhibits 50% growth); for LC50: read-out: LC50 (concentration that kills 50% of the cells)
[1] = tested on: HeLa; test: Cytotoxicity, CellTiter-Glo Luminescent Cell Viability Assay, HeLa
Procedure: (§1) The cytotoxicities of compounds 28-a, 28-b, and 29-a were evaluated against the human cancer cell lines HeLa, SK-MEL-5, and SK-MEL-28. The cytotoxicity evaluations were performed, over a concentration range of 0.2 nM to 20 μM, using the CellTiter-Glo™ Luminescent Cell Viability Assay, a product of Promega Corporation (Madison, Wis. USA), according to the protocol detailed in Promega's Technical Bulletin No. 288. Each value is the average value obtained from three experiments. GI50 is the concentration that inhibits 50% growth; TGI is the concentration that inhibits 100% growth; and LC50 is the concentration that kills 50% of the cells.

[2] = tested on: SK-MEL-5; test: Cytotoxicity, CellTiter-Glo Luminescent Cell Viability Assay, SK-MEL-5
Procedure: as §1

[3] = tested on: SK-MEL-28; test: Cytotoxicity, CellTiter-Glo Luminescent Cell Viability Assay, SK-MEL-28
Procedure: as §1

For `C=C(C)CC(OC)[C@H](O)C(=O)N[C@@H](OC)[C@@H]1C[C@@H](O)C(C)(C)[C@@H](C[C@H](O)C(C)C2Cc3c(C)c(O)cc(O)c3C(=O)O2)O1` (stereo partly drawn) [Compound 28-a, psymberin], the GI50 [1] was 0.23 nM, the LC50 [1] was 1.6 nM and the “TGI (concentration that inhibits 100% growth)” value [1] was 0.90 nM. The GI50 [2] was 0.3 nM, the LC50 [2] was 1.3 nM and the “TGI (concentration that inhibits 100% growth)” value [2] was 0.7 nM. The GI50 [3] was 0.23 nM, the LC50 [3] was 1.2 nM and the “TGI (concentration that inhibits 100% growth)” value [3] was 0.7 nM.

In the case of `C=C(C)C[C@H](OC)[C@H](O)C(=O)N[C@H](OC)[C@@H]1C[C@@H](O)C(C)(C)C(CC(O)[C@@H](C)C2Cc3c(C)c(O)cc(O)c3C(=O)O2)O1` (stereo partly drawn) [Compound 28-b], the GI50 [1] is reported as 80 nM, the LC50 [1] is reported as 900 nM and the “TGI (concentration that inhibits 100% growth)” value [1] is reported as 200 nM. The GI50 [2] was 300 nM, the LC50 [2] was 1100 nM and the “TGI (concentration that inhibits 100% growth)” value [2] was 700 nM. The GI50 [3] was 110 nM, the LC50 [3] was 900 nM and the “TGI (concentration that inhibits 100% growth)” value [3] was 400 nM.

With `C=C(C)C[C@@H](OC)[C@H](O)C(=O)N[C@@H](OC)[C@@H]1C[C@@H](O)C(C)(C)C(CC(O)[C@@H](C)C2Cc3c(C)c(O)cc(O)c3C(=O)O2)O1` (stereo partly drawn) [Compound 29-a] the GI50 [1] was 60 nM, the LC50 [1] was 900 nM and the “TGI (concentration that inhibits 100% growth)” value [1] was 200 nM. For the same molecule, the GI50 [2] was 300 nM, the LC50 [2] was 1700 nM and the “TGI (concentration that inhibits 100% growth)” value [2] was 800 nM. The GI50 [3] was 200 nM, the LC50 [3] was 1100 nM and the “TGI (concentration that inhibits 100% growth)” value [3] was 550 nM.
